These results are taken from US20120220562A1, “Anti-Viral Compounds” (ABBOTT LABAORATORIES, priority 2011, published 2012).

By EC50 is commonly meant the concentration that produces a half-maximal response.

Bounds are passed on as bounds.

The assay deals with HCV 1b-Con1 replicon. In words: HCV 1b-Con1 replicon assay in the presence of 5% FBS. The format is cell-based. To be noted: Hepatitis C virus. (In general: In antiviral work, replicon cells carry a viral genome segment that copies itself.)
As to `COC(=O)N[C@H](C(=O)N1CCC[C@H]1c1nc2cc([C@H]3CC[C@H](c4ccc5[nH]c([C@@H]6CCCN6C(=O)[C@@H](NC(=O)OC)C(C)C)nc5c4)N3c3cc(F)c(N4CCC(C)(C)CC4)c(F)c3)ccc2[nH]1)C(C)C` [Example 5.10, methyl {(2S)-1-[(2S)-2-{5-[(2R,5R)-1-[4-(4,4-dimethylpiperidin-1-yl)-3,5-difluorophenyl]-5-{2-[(2S)-1-{(2S)-2-[(methoxycarbonyl)amino]-3-methylbutanoyl}pyrrolidin-2-yl]-1H-benzimidazol-5-yl}pyrrolidin-2-yl]-1H-benzimidazol-2-yl}pyrrolidin-1-yl]-3-methyl-1-oxobutan-2-yl}carbamate], the EC50 is below 0.1 nM.

As for `COC(=O)N[C@H](C(=O)N1CCC[C@H]1c1nc2c(C)c([C@H]3CC[C@@H](c4ccc5[nH]c([C@@H]6CCCN6C(=O)[C@@H](NC(=O)OC)C(C)C)nc5c4C)N3c3ccc(C(C)(C)C)cc3)ccc2[nH]1)C(C)C` [Example 6.8, methyl {(2S)-1-[(2S)-2-{5-[(2R,5S)-1-(4-tert-butylphenyl)-5-{2-[(2S)-1-{(2S)-2-[(methoxycarbonyl)amino]-3-methylbutanoyl}pyrrolidin-2-yl]-4-methyl-1H-benzimidazol-5-yl}pyrrolidin-2-yl]-4-methyl-1H-benzimidazol-2-yl}pyrrolidin-1-yl]-3-methyl-1-oxobutan-2-yl}carbamate], the EC50 was below 0.1 nM.

With `COC(=O)N[C@H](C(=O)N1CCC[C@H]1c1nc2cc([C@H]3CC[C@@H](c4cc5nc([C@@H]6CCCN6C(=O)[C@@H](NC(=O)OC)C(C)C)[nH]c5cc4F)N3c3cc(F)c(N4CCCCC4)c(F)c3)c(F)cc2[nH]1)C(C)C` [Example 4.52, methyl {(2S)-1-[(2S)-2-{5-[(2S,5R)-1-[3,5-difluoro-4-(piperidin-1-yl)phenyl]-5-{6-fluoro-2-[(2S)-1-{(2S)-2-[(methoxycarbonyl)amino]-3-methylbutanoyl}pyrrolidin-2-yl]-1H-benzimidazol-5-yl}pyrrolidin-2-yl]-6-fluoro-1H-benzimidazol-2-yl}pyrrolidin-1-yl]-3-methyl-1-oxobutan-2-yl}carbamate], the EC50 is below 0.1 nM.

For `COC(=O)N[C@H](C(=O)N1C(c2nc3cc([C@H]4CC[C@H](c5ccc6[nH]c([C@@H]7C[C@@H]8CCC[C@@H]8N7C(=O)[C@@H](NC(=O)OC)C(C)C)nc6c5)N4c4cc(F)c(N5CCCCC5)c(F)c4)ccc3[nH]2)C[C@@H]2CCC[C@@H]21)C(C)C` (stereo partly drawn) [Example 4.18, methyl {(2S)-1-[(2S,3aS,6aS)-2-{5-[(2R,5R)-1-[3,5-difluoro-4-(piperidin-1-yl)phenyl]-5-{2-[(3aS,6aS)-1-{(2S)-2-[(methoxycarbonyl)amino]-3-methylbutanoyl}octahydrocyclopenta[b]pyrrol-2-yl]-1H-benzimidazol-5-yl}pyrrolidin-2-yl]-1H-benzimidazol-2-yl}hexahydrocyclopenta[b]pyrrol-1(2H)-yl]-3-methyl-1-oxobutan-2-yl}carbamate], the EC50 is below 0.1 nM.

Turning to `COC(=O)N[C@H](C(=O)N1CCC[C@H]1c1nc2cc([C@H]3CC[C@H](c4cc5nc([C@@H]6CCCN6C(=O)[C@@H](NC(=O)OC)C(C)C)[nH]c5cc4F)N3c3cc(F)c(N4CCO[C@@H](c5ccccc5)C4)c(F)c3)c(F)cc2[nH]1)C(C)C` [Example 4.55, methyl {(2S)-1-[(2S)-2-{5-[(2R,5R)-1-{3,5-difluoro-4-[(2S)-2-phenylmorpholin-4-yl]phenyl}-5-{6-fluoro-2-[(2S)-1-{(2S)-2-[(methoxycarbonyl)amino]-3-methylbutanoyl}pyrrolidin-2-yl]-1H-benzimidazol-5-yl}pyrrolidin-2-yl]-6-fluoro-1H-benzimidazol-2-yl}pyrrolidin-1-yl]-3-methyl-1-oxobutan-2-yl}carbamate], the concentration for a half-maximal effect (EC50) is below 0.1 nM.

As for `COC(=O)N[C@H](C(=O)N1CCC[C@H]1c1nc2ccc([C@H]3CC[C@H](c4ccc5nc([C@@H]6CCCN6C(=O)[C@@H](NC(=O)OC)C(C)C)[nH]c5c4)N3c3ccc(N4CCC(F)(c5ccccc5)CC4)cc3)cc2[nH]1)C(C)C` [Example 4.36, methyl {(2S)-1-[(2S)-2-{6-[(2R,5R)-1-[4-(4-fluoro-4-phenylpiperidin-1-yl)phenyl]-5-{2-[(2S)-1-{(2S)-2-[(methoxycarbonyl)amino]-3-methylbutanoyl}pyrrolidin-2-yl]-1H-benzimidazol-6-yl}pyrrolidin-2-yl]-1H-benzimidazol-2-yl}pyrrolidin-1-yl]-3-methyl-1-oxobutan-2-yl}carbamate], the EC50 is below 0.1 nM.

As to `COC(=O)N[C@H](C(=O)N1CCC[C@H]1c1nc2cc(F)c([C@H]3CC[C@H](c4cc5[nH]c([C@@H]6CCCN6C(=O)[C@@H](NC(=O)OC)C(C)C)nc5cc4F)N3c3cc(F)c(N4CCN(c5c(F)cccc5F)CC4)c(F)c3)cc2[nH]1)C(C)C` [Example 6.16, methyl {(2S)-1-[(2S)-2-{6-[(2R,5R)-1-{4-[4-(2,6-difluorophenyl)piperazin-1-yl]-3,5-difluorophenyl}-5-{5-fluoro-2-[(2S)-1-{(2S)-2-[(methoxycarbonyl)amino]-3-methylbutanoyl}pyrrolidin-2-yl]-1H-benzimidazol-6-yl}pyrrolidin-2-yl]-5-fluoro-1H-benzimidazol-2-yl}pyrrolidin-1-yl]-3-methyl-1-oxobutan-2-yl}carbamate], the concentration giving a half-maximal response (EC50) is below 0.1 nM.

For `COC(=O)N[C@H](C(=O)N1CCC[C@H]1c1nc2cc([C@H]3CC[C@H](c4ccc5[nH]c([C@@H]6CCCN6C(=O)[C@@H](NC(=O)OC)C(C)C)nc5c4)N3c3cc(F)c(N4CCOC(c5ccccc5)C4)c(F)c3)ccc2[nH]1)C(C)C` (stereo partly drawn) [Example 4.49, methyl {(2S)-1-[(2S)-2-{5-[(2R,5R)-1-[3,5-difluoro-4-(2-phenylmorpholin-4-yl)phenyl]-5-{2-[(2S)-1-{(2S)-2-[(methoxycarbonyl)amino]-3-methylbutanoyl}pyrrolidin-2-yl]-1H-benzimidazol-5-yl}pyrrolidin-2-yl]-1H-benzimidazol-2-yl}pyrrolidin-1-yl]-3-methyl-1-oxobutan-2-yl}carbamate], the EC50 is below 0.1 nM.

For the compound `COC(=O)N[C@H](C(=O)N1CCC[C@H]1c1nc2cc([C@H]3CC[C@H](c4cc5nc([C@@H]6CCCN6C(=O)[C@@H](NC(=O)OC)[C@@H](C)OC(C)(C)C)[nH]c5cc4F)N3c3cc(F)c(N4CCC(C(C)(C)C)CC4)c(F)c3)c(F)cc2[nH]1)[C@@H](C)OC(C)(C)C` [Example 4.29, methyl {(2S,3R)-3-tert-butoxy-1-[(2S)-2-(5-{(2R,5R)-5-{2-[(2S)-1-{(2S,3R)-3-tert-butoxy-2-[(methoxycarbonyl)amino]butanoyl}pyrrolidin-2-yl]-6-fluoro-1H-benzimidazol-5-yl}-1-[4-(4-tert-butylpiperidin-1-yl)-3,5-difluorophenyl]pyrrolidin-2-yl}-6-fluoro-1H-benzimidazol-2-yl)pyrrolidin-1-yl]-1-oxobutan-2-yl}carbamate], the concentration for a half-maximal effect (EC50) is below 0.1 nM.

Consider `COC(=O)N[C@H](C(=O)N1CCC[C@H]1c1nc2ccc([C@H]3CC[C@H](c4ccc5nc([C@@H]6CCCN6C(=O)[C@@H](NC(=O)OC)C6CC6)[nH]c5c4)N3c3ccc(C(C)(C)C)cc3)cc2[nH]1)C1CC1` [Example 4.16, dimethyl ([(2R,5R)-1-(4-tert-butylphenyl)pyrrolidine-2,5-diyl]bis{1H-benzimidazole-6,2-diyl(2S)pyrrolidine-2,1-diyl [(1S)-1-cyclopropyl-2-oxoethane-2,1-diyl]}) biscarbamate], for which the EC50 is below 0.1 nM.

On to `COC(=O)N[C@H](C(=O)N1[C@H](c2nc3cc([C@H]4CC[C@H](c5ccc6[nH]c([C@@H]7C[C@@H]8CCC[C@@H]8N7C(=O)[C@@H](NC(=O)OC)C7CCCC7)nc6c5)N4c4cc(F)c(N5CCCCC5)c(F)c4)ccc3[nH]2)C[C@@H]2CCC[C@@H]21)C1CCCC1` [Example 3.30, dimethyl ({(2R,5R)-1-[3,5-difluoro-4-(piperidin-1-yl)phenyl]pyrrolidine-2,5-diyl}bis{1H-benzimidazole-5,2-diyl(2S,3aS,6aS)hexahydrocyclopenta[b]pyrrole-2,1(2H)-diyl[(1S)-1-cyclopentyl-2-oxoethane-2,1-diyl]})biscarbamate], for which the concentration for a half-maximal effect (EC50) is below 0.1 nM.

For the compound `COC(=O)N[C@H](C(=O)N1CCC[C@H]1c1nc2cc([C@H]3CC[C@H](c4ccc5[nH]c([C@@H]6CCCN6C(=O)[C@@H](NC(=O)OC)C(C)C)nc5c4)N3c3cc(F)c(N4CCC5(CC4)OCCO5)c(F)c3)ccc2[nH]1)C(C)C` [Example 5.14], the EC50 was below 0.1 nM.

For the compound `COC(=O)N[C@H](C(=O)N1CCC[C@H]1c1nc(-c2ccc([C@H]3CC[C@H](c4ccc(-c5c[nH]c([C@@H]6CCCN6C(=O)[C@@H](NC(=O)OC)C(C)C)n5)cc4)N3c3cc(F)c(N4CCC(c5ccccc5)CC4)c(F)c3)cc2)c[nH]1)C(C)C` [Example 9, methyl {(2S)-1-[(2S)-2-(4-{4-[(2R,5R)-1-[3,5-difluoro-4-(4-phenylpiperidin-1-yl)phenyl]-5-(4-{2-[(2S)-1-{(2S)-2-[(methoxycarbonyl)amino]-3-methylbutanoyl}pyrrolidin-2-yl]-1H-imidazol-4-yl}phenyl)pyrrolidin-2-yl]phenyl}-1H-imidazol-2-yl)pyrrolidin-1-yl]-3-methyl-1-oxobutan-2-yl}carbamate], the 50% effective concentration (EC50) is below 0.1 nM.

For the compound `COC(=O)N[C@H](C(=O)N1[C@H](c2nc3cc([C@H]4CC[C@H](c5ccc6[nH]c([C@@H]7CCC(C)(C)N7C(=O)[C@@H](NC(=O)OC)C(C)C)nc6c5)N4c4ccc(C(C)(C)C)cc4)ccc3[nH]2)CCC1(C)C)C(C)C` [Example 3.11, methyl {(2S)-1-[(5.5)-5-{5-[(2R,5R)-1-(4-tert-butylphenyl)-5-{2-[(2S)-1-{(2S)-2-[(methoxycarbonyl)amino]-3-methylbutanoyl}-5,5-dimethylpyrrolidin-2-yl]-1H-benzimidazol-5-yl}pyrrolidin-2-yl]-1H-benzimidazol-2-yl}-2,2-dimethylpyrrolidin-1-yl]-3-methyl-1-oxobutan-2-yl}carbamate], the EC50 is below 0.1 nM.
